PubChem BioAssay (NCI)
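Compound exposure: 48 hours, 5 concentrations, 96-well plates. TGI: total growth inhibition.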

Key:
Test in all cases: NCI-60 cell line screen, 48 h
OVCAR-5 ovarian = tested on: OVCAR-5 ovarian
SF-295 CNS = tested on: SF-295 CNS
OVCAR-3 ovarian = tested on: OVCAR-3 ovarian
A549 NSCLC = tested on: A549 NSCLC
MALME-3M melanoma = tested on: MALME-3M melanoma
NCI-H460 lung = tested on: NCI-H460 lung
SF-539 CNS = tested on: SF-539 CNS
COLO 205 colon = tested on: COLO 205 colon
HOP-62 NSCLC = tested on: HOP-62 NSCLC
SF-268 CNS = tested on: SF-268 CNS

## Cc1cs/c(=N\C(P(=O)(O)O)P(=O)(O)O)n1C
OVCAR-5 ovarian
  TGI: > 100 µM
SF-295 CNS
  TGI: > 100 µM
OVCAR-3 ovarian
  TGI: > 100 µM
A549 NSCLC
  TGI: > 100 µM
MALME-3M melanoma
  TGI: > 100 µM
NCI-H460 lung
  TGI: > 100 µM
SF-539 CNS
  TGI: > 100 µM
COLO 205 colon
  TGI: > 100 µM
HOP-62 NSCLC
  TGI: > 100 µM
SF-268 CNS
  TGI: > 100 µM

## O=C(c1cccs1)N(C(=S)N1CCN(c2ccccc2)CC1)c1ccccc1
OVCAR-5 ovarian
  TGI: > 100 µM
SF-295 CNS
  TGI: > 100 µM
OVCAR-3 ovarian
  TGI: > 100 µM
A549 NSCLC
  TGI: > 100 µM
MALME-3M melanoma
  TGI: > 100 µM
NCI-H460 lung
  TGI: > 100 µM
SF-539 CNS
  TGI: > 100 µM
COLO 205 colon
  TGI: > 100 µM
HOP-62 NSCLC
  TGI: > 100 µM
SF-268 CNS
  TGI: > 100 µM

## Cc1ccc(-c2cc(-c3ccc(Cl)cc3)nc(/N=C3\C(=O)N(CN4CCCCC4)c4ccc(Cl)cc43)n2)cc1
OVCAR-5 ovarian
  TGI: > 100 µM
SF-295 CNS
  TGI: > 100 µM
OVCAR-3 ovarian
  TGI: > 100 µM
A549 NSCLC
  TGI: 57.2 µM
MALME-3M melanoma
  TGI: > 100 µM
NCI-H460 lung
  TGI: > 100 µM
SF-539 CNS
  TGI: 61.5 µM
COLO 205 colon
  TGI: 80.5 µM
HOP-62 NSCLC
  TGI: 98.2 µM
SF-268 CNS
  TGI: 40.3 µM

## CN(C)CCCn1c2ccccc2c2cnccc21
OVCAR-5 ovarian
  TGI: > 100 µM
SF-295 CNS
  TGI: > 100 µM
OVCAR-3 ovarian
  TGI: > 100 µM
A549 NSCLC
  TGI: > 100 µM
MALME-3M melanoma
  TGI: 83.3 µM
NCI-H460 lung
  TGI: 67 µM
SF-539 CNS
  TGI: 48.2 µM
COLO 205 colon
  TGI: 30.2 µM
HOP-62 NSCLC
  TGI: > 100 µM
SF-268 CNS
  TGI: > 100 µM
